Data on five compounds can be found in patent publication US20080108574A1, “MELANOCORTIN RECEPTOR MEDIATED MODULATION OF NEUROGENESIS” (BrainCells, Inc., priority 2006, published 2008).

The structures appear in SMILES notation.

One test addresses mGluR2 (Homo sapiens, UniProt Q14416). The note with it: read-out: IC50 against mGluR2; cited from earlier work.
The test system of a further test is Group III receptors. The note with it: sub-mM concentrations; cited from earlier work.
A further test addresses mGluR3 (Homo sapiens, UniProt Q14832). The note with it: read-out: IC50 against mGluR3; cited from earlier work.
A further test concerns Group I receptors. The note with it: sub-mM concentrations; cited from earlier work.
The test system of another test is AMPA iGlu receptors. The note with it: cited from earlier work.
The next test has as its system NMDA iGlu receptors. The note with it: cited from earlier work.
In a further test the test system is KA iGlu receptors. The note with it: cited from earlier work.
The next test concerns the target human mGlu2 (Homo sapiens, UniProt Q14416). The note with it: in vitro, agonist; read-out: EC50 against human mGlu2 receptors; cited from earlier work.
The target of the next test is human mGlu3 (Homo sapiens, UniProt Q14832). The note with it: in vitro, agonist; read-out: EC50 against human mGlu3 receptors; cited from earlier work.
Chain of human mGlu3 (Q14832 23-879): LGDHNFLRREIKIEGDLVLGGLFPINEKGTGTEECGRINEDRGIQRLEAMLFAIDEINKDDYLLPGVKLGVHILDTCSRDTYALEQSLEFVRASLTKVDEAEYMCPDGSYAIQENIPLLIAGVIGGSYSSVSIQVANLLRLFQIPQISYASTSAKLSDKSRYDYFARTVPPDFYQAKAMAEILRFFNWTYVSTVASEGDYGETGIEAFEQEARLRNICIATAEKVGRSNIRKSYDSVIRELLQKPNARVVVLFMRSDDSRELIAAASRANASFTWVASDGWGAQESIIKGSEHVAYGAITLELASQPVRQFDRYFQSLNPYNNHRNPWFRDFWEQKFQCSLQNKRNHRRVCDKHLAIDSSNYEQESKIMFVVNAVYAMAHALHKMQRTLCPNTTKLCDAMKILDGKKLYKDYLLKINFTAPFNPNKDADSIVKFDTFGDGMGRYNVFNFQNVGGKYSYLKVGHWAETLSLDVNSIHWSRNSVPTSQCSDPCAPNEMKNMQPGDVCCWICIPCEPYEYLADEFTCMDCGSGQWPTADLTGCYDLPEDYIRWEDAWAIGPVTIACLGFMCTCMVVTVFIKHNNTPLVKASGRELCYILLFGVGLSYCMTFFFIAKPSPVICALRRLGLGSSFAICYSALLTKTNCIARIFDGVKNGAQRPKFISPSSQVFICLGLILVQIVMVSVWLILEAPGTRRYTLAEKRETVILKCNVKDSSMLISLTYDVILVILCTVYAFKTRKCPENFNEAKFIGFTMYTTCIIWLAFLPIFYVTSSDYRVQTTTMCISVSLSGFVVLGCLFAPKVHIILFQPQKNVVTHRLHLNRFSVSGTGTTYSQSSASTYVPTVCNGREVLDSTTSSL
Test [1] relates to human neural stem cells (hNSCs). As for the experimental part:
In one non-limiting example neurogenesis, a neurogenic response, and neurodifferentiation are all measured in an in vitro assay as follows. […] Mitogen-free test media with a positive control is used for neuronal differentiation, and basal media without growth factors serves as a negative control. Neurogenesis is determined, for example, by measuring the proliferation and/or differentiation of the hNSCs in the presence of varying concentrations of test compound compared to the absence of the test compound (negative control). […] Neurodifferentiation is measured, for example, by detecting neurodifferentiation specific expression markers which methods are known in the art.
(§1) A positive control for neuronal differentiation was used along with basal media without growth factors as a negative control.
as §1

Chain of human mGlu2 (Q14416 19-872): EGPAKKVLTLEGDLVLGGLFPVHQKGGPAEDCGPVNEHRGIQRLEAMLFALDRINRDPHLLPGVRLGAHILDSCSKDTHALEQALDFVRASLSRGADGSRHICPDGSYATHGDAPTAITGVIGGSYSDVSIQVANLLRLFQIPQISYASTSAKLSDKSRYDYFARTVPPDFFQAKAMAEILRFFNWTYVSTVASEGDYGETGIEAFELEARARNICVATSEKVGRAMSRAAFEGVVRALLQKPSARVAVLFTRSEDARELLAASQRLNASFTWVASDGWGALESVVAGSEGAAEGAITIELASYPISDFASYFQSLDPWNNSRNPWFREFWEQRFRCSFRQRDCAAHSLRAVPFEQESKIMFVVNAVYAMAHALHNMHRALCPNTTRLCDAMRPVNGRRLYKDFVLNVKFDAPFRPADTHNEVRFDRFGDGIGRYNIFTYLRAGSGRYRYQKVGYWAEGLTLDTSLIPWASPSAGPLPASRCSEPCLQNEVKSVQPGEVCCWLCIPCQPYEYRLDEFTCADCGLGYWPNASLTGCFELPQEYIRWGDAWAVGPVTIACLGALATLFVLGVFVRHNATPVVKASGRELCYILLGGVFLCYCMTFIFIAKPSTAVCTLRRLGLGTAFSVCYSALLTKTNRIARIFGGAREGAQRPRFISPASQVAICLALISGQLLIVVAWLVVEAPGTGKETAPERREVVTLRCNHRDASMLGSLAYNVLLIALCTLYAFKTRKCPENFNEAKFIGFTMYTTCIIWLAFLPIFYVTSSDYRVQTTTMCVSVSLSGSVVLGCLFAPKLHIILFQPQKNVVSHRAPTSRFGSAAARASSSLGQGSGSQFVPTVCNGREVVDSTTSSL
Chain of mGluR2 (Q14416 19-872): as above
Chain of mGluR3 (Q14832 23-879): as the sequence (Q14832 23-879) above

Turning to `NC1(C(=O)O)CCc2cc(P(=O)(O)O)ccc21` (racemic) [APICA, (RS)-1-amino-5-phosphonoindan-1-carboxylic acid], the IC50 at mGluR2 and on mGluR3 was around 30 µM each time. Further, in the test with Group III receptors, the “activity against Group III receptors” value is “no appreciable activity”. Further, in the test on Group I receptors, the “activity against Group I receptors” value was “no appreciable activity”.

Take `N[C@](CC1c2ccccc2Oc2ccccc21)(C(=O)O)[C@H]1C[C@@H]1C(=O)O` [LY341495, (2S)-2-amino-2-(1S,2S-2-carboxycycloprop-1-yl)-3-(xanth-9-yl)propanoic acid]: in the test on AMPA iGlu receptors, the “activity against AMPA iGlu receptors” value is “substantially inactive”. In addition, the “activity against NMDA iGlu receptors” value with NMDA iGlu receptors is “substantially inactive”. In the test on KA iGlu receptors, the “activity against KA iGlu receptors” value is “substantially inactive”.

Take `N[C@@]1(C(=O)O)CO[C@H]2[C@H](C(=O)O)[C@H]21` [LY379268, (−)-2-Oxa-4-aminobicyclohexane-4,6-dicarboxylic acid]: the EC50 on human mGlu2 and at human mGlu3 was below 0.01 µM each time.

`Clc1ccc2c(c1)N=C(N1CCNCC1)c1ccccc1N2` [N-desmethylclozapine]: the neurogenic activity entry in test [1] (in assays as disclosed herein) is on record as “highly neurogenic”.

`CCCC[C@H](NC(C)=O)C(=O)N[C@H]1CC(=O)NCCCC[C@@H](C(=O)O)NC(=O)[C@H](Cc2c[nH]c3ccccc23)NC(=O)[C@H](CCCNC(=N)N)NC(=O)[C@@H](Cc2ccccc2)NC(=O)[C@H](Cc2c[nH]cn2)NC1=O` [PT-141, bremelanotide]: the “effect on neuronal differentiation” value in test [1] (hNSCs, dose response, TUJ-1 staining) was “promoted neuronal differentiation”. For the same compound, in test [1] (read-out: EC50, neuronal differentiation, hNSCs, percent of neuronal positive control, basal media values subtracted), the EC50 (in general, the concentration at which the effect is half-maximal) was 0.2 µM.
